Patent US11147853B2, “Polypeptide binding to a plurality of amyloid monomers and aggregates, and use thereof” (Hangzhou Wisdom Panacea Biologics Co., Ltd., priority 2015, dated 2021)
Read-outs that look alike come from different tables or passages of the source. Where no end group is shown, it is not given here.

Legend:
[1] = test system: SH-SY5Y cells; conditions: for cell activity (MTT, relative to PBS control): Aβ42 4 μM, 48 hours, Aβ42 alone 71%
Procedure: (§1) SH-SY5Y cells were prepared into a single cell suspension with a medium (DMEM) containing 10% fetal bovine serum and then inoculated into a 96-well cell culture plate at 10000 cells per well and with a volume of 100 μL per well. The cells were incubated at 37° C., 5% of CO2 concentration for 24 hours in an incubator.
Aβ42: the final concentration of Aβ42 was 4 μM; a mixture of Aβ42 and ZR (Aβ:ZR=1:0.5): the final concentration of Aβ42 protein was 4 μM and the final concentration of ZR was 2 μM; a mixture of Aβ42 and ZR (Aβ: ZR=1:1): the final concentration of Aβ42 protein was 4 μM and the final concentration of ZR was 4 μM;
(§2) Cells were further cultured for 48 hours, then 10 μL of MTT solution was added into each well and incubated at 37° C. for 3 hours. Then the incubation was stopped by adding 100 μL dissolve solution (10% SDS and 5% iso-butanol dissolved in 0.01 M HCL) to each well, and incubated at 37° C. overnight to fully dissolve the MTT crystals. The absorbance of each well was measured on a multifunctional ELISA reader at a wavelength of 570 nm. After subtracting the background, the absorbance of the sample was divided by the absorbance of PBS control to act as an indicator of the cell activity, and the significant differences were analyzed.

[2] = test system: SH-SY5Y cells; conditions: for cell activity (MTT, relative to PBS control): lysozyme 20 μM, 48 hours, lysozyme alone 55%
Procedure: as §1
Lysozyme: the final concentration of lysozyme was 20 μM; a mixture of lysozyme and ZR (lysozyme:ZR=1:1): the final concentration of lysozyme protein was 20 μM and the final concentration of ZR was 20 μM; a mixture of lysozyme and ZR (lysozyme: ZR=1:10): the final concentration of lysozyme protein was 20 μM and the final concentration of ZR was 200 μM;
as §2

[3] = test system: SH-SY5Y cells; conditions: for cell activity (MTT, relative to PBS control): amylin 4 μM, 48 hours, amylin alone 61%
Procedure: as §1
Amylin: the final concentration of amylin was 4 μM; a mixture of Amylin and ZR (Amylin:ZR=1:1): the final concentration of Amylin protein was 4 μM and the final concentration of ZR was 4 μM; a mixture of Amylin and ZR (Amylin: ZR=1:10): the final concentration of Amylin protein was 4 μM and the final concentration of ZR was 40 μM;
as §2

[4] = test system: SH-SY5Y cells; conditions: for cell activity (MTT, relative to PBS control): insulin 60 μM, 48 hours, insulin alone 77%
Procedure: as §1
Insulin: the final concentration of insulin was 60 μM; a mixture of insulin and ZR (insulin:ZR=1:1): the final concentration of insulin protein was 60 μM and the final concentration of ZR was 60 μM; a mixture of insulin and ZR (insulin: ZR=1:5): the final concentration of insulin protein was 60 μM and the final concentration of ZR was 300 μM; PBS was used as control;
as §2

[5] = molecular target: Aβ42 oligomers (Homo sapiens, UniProt P05067); test: ELISA binding of histidine-tagged ZR derivatives to Aβ42 oligomers
Sequence of Aβ42 oligomers (P05067 672-713 limits assumed): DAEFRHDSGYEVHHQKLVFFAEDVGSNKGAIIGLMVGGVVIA

In the case of “SFFNNKR [ZR, Ser-Phe-Phe-Asn-Asn-Lys-Arg]”, the “cell activity (MTT, relative to PBS control)” value ([1]; ZR 2 μM (Aβ:ZR=1:0.5)) is reported as 80%, the “cell activity (MTT, relative to PBS control)” value ([1]; ZR 4 μM (Aβ:ZR=1:1)) is reported as 82% and the “inhibition of cytotoxicity induced by Aβ42” value ([1]; molar ratio 1:1) is reported as 37.8%. For the same substance, the “cell activity (MTT, relative to PBS control)” value ([2]; ZR 20 μM (lysozyme:ZR=1:1)) was 85%, the “cell activity (MTT, relative to PBS control)” value ([2]; ZR 200 μM (lysozyme:ZR=1:10)) was 93% and the “inhibition of cytotoxicity induced by lysozyme” value ([2]; molar ratio 1:10) was 117.6%. The “cell activity (MTT, relative to PBS control)” value ([3]; ZR 4 μM (Amylin:ZR=1:1)) was 70%, the “cell activity (MTT, relative to PBS control)” value ([3]; ZR 40 μM (Amylin:ZR=1:10)) was 75% and the “inhibition of cytotoxicity induced by amylin” value ([3]; molar ratio 1:10) was 45.4%. The “cell activity (MTT, relative to PBS control)” value ([4]; ZR 60 μM (insulin:ZR=1:1)) was 92%, the “cell activity (MTT, relative to PBS control)” value ([4]; ZR 300 μM (insulin:ZR=1:5)) was 102% and the “inhibition of cytotoxicity induced by insulin” value ([4]; molar ratio 1:5) was 89.8%.
SFANNKR [sequence 9] was tested, and the “OD450 of binding to Aβ42 oligomers” value [5] was 0.15.
In the case of SFFNNAR [sequence 12], the “OD450 of binding to Aβ42 oligomers” value [5] is reported as 0.14.
SFFNNKA [sequence 13] was tested, and the “OD450 of binding to Aβ42 oligomers” value [5] was 0.14.
AFFNNKR [sequence 7] was tested, and the “OD450 of binding to Aβ42 oligomers” value [5] was 0.22.
For SFFNAKR [sequence 11], the “OD450 of binding to Aβ42 oligomers” value [5] was 0.18.
